{"source": "patent US20110195845A1", "about": "“Constructs for Expressing Herbicide Tolerance Genes, Related Plants, and Related Trait Combinations” (Dow AgroSciences LLC, priority 2008, published 2011)", "key": {"[1]": {"test_system": "NT-1 tobacco suspension cells treated with PAT (pDAB3779)", "assay": "NT-1 tobacco cell transformation, selection on bialaphos", "format": "cell-based", "conditions": "% of selection plates with at least one PCR positive isolate", "experimental": "(§1) Four days prior to transformation, a 1 week old NT-1 tobacco suspension, which was being subcultured every 7 days, was subcultured to fresh medium by adding 2 ml of the NT-1 culture or 1 ml of packed cells into 40 ml NT-1 B media. The subcultured suspension was maintained in the dark at 25±1° C. on a shaker at 125 rpm.\n(§2) A 50% glycerol stock of Agrobacterium tumefaciens [strain LBA4404] harboring a binary vector of interest was used to initiate a liquid overnight culture by adding 20, 100, or 500 μl to 30 ml YEP liquid (10 g/L yeast extract, 10 g/L Peptone, 5 g/L NaCl, 0-10 g/L Sucrose) containing 50-100 mg/L spectinomycin. The bacterial culture was incubated in the dark at 28° C. in an incubator shaker at 150-250 rpm until the OD600 was 1.5+0.2. This took approximately 18-20 hrs.\nFor each vector tested, 20-70 mL of 4-day old suspension cells were transferred into a sterile vessel, to which 500-1750 μl of Agrobacterium suspension at the proper OD was added. To ensure a uniform mixture was achieved, the cells were pipetted up and down 5 times with a 10 ml wide-bore pipet. The uniform suspension was then drawn up into a 25 ml barrel of a repeat pipetter and 250 μl of the suspension was dispensed per well into 24-well plates, continuing until the suspension was exhausted. […]"}, "[2]": {"test_system": "NT-1 tobacco suspension cells treated with DSM-2 (v2) (pDAB3778)", "assay": "NT-1 tobacco cell transformation, selection on bialaphos or glufosinate ammonium", "format": "cell-based", "conditions": "for Transformation Frequency on 10 mg/L Bialaphos following PCR Verification: % of selection plates with at least one PCR positive isolate", "experimental": "as §1, §2\nFor each vector tested, 20-70 mL of 4-day old suspension cells were transferred into a sterile vessel, to which 500-1750 μl of Agrobacterium suspension at the proper OD was added. To ensure a uniform mixture was achieved, the cells were pipetted up and down 5 times with a 10 ml wide-bore pipet. The uniform suspension was then drawn up into a 25 ml barrel of a repeat pipetter and 250 μl of the suspension was dispensed per well into 24-well plates, continuing until the suspension was exhausted. The well plates were wrapped in parafilm and cultured in the dark at 25±1° C. without shaking for a 3 day co-cultivation.\nFollowing the co-cultivation, all excess liquid was removed from the individual wells with a 1 mL pipet tip, and remaining cells were resuspended in 1 ml NTC liquid (NT-1 B medium containing 500 mg/L carbenicillin, added after autoclaving). The contents of an individual well were dispersed across the entire surface of 100×25 mm selection plates using disposable transfer pipets. Selection media consisted of NTC media solidified with 8 g/l TC agar supplemented with 7.5 to 15 mg/L bialaphos or technical grade glufosinate ammonium, added after autoclaving. All selection plates, left unwrapped, were maintained in the dark at 28° C.\nPutative transformants appeared as small clusters of callus on a background of dead, non-transformed cells. Calli were isolated approximately 2-6 weeks post-transformation. Each callus isolate was transferred to its own 60×20 mm plate containing the same selection medium and allowed to grow for approximately 2 weeks before being submitted for analysis."}}, "data": [{"smiles": "C[C@H](NC(=O)[C@H](C)NC(=O)[C@@H](N)CCP(C)(=O)O)C(=O)O", "note": "[Bialaphos]", "values": [{"measurement": "Transformation Frequency on 10 mg/L Bialaphos following PCR Verification", "setting": "[1]", "value": 100, "unit": "%"}, {"measurement": "Transformation Frequency on 10 mg/L Bialaphos following PCR Verification", "setting": "[1]; listed as bialaphos", "value": 100, "unit": "%"}, {"measurement": "Transformation frequency (% of selection plates producing at least one callus) after coding region PCR", "setting": "[2]; 7.5 mg/L selection agent", "value": 38.9, "unit": "%"}, {"measurement": "Transformation Frequency on 10 mg/L Bialaphos following PCR Verification", "setting": "[2]", "value": 79, "unit": "%"}, {"measurement": "Transformation Frequency on 10 mg/L Bialaphos following PCR Verification", "setting": "[2]; listed as bialaphos", "value": 79, "unit": "%"}, {"measurement": "Transformation frequency (% of selection plates producing at least one callus) after coding region PCR", "setting": "[2]; 10 mg/L selection agent", "value": 44.4, "unit": "%"}, {"measurement": "Transformation frequency (% of selection plates producing at least one callus) after coding region PCR", "setting": "[2]; 12.5 mg/L selection agent", "value": 38.9, "unit": "%"}, {"measurement": "Transformation frequency (% of selection plates producing at least one callus) after coding region PCR", "setting": "[2]; 15 mg/L selection agent", "value": 22.2, "unit": "%"}]}]}
